According to PMC5878144 (Journal of controlled release : official journal of the …, 2018):
Like-named read-outs stand apart in the source and are kept apart here. Values belong to the compound of their own block, whether it stands above or below them.

Tests used:
in vivo = settings: macaque, sc
[1] = Free ARV compartmental models; format: in vivo, Macaca nemestrina; settings: for CL/F: calculated from population PK parameters; for Vd/F / half-life / k el: male, monkey, sc
[2] = cited from earlier work
[3] = TLC-ART101 mechanism-based pharmacokinetic; settings: for k21, lymphatic entry rate constant, fast pathway / k31, lymphatic entry rate constant, intermediate pathway / k41, lymphatic entry rate constant, slow pathway / tlag2, lymphatic transit lag time, intermediate pathway / tlag1, lymphatic transit lag time, fast pathway / V5_DcNP, apparent volume of distribution of DcNP-associated ARV / k75, rate constant for release of free ARV from DcNPs in plasma / tlag3, lymphatic transit lag time, slow pathway: TLC-ART101; for k21, lymphatic entry rate constant, fast pathway / k31, lymphatic entry rate constant, intermediate pathway / k41, lymphatic entry rate constant, slow pathway: fixed after manual adjustment
[4] = Equilibrium dialysis of DcNP-associated versus free drug; format: physicochemical; settings: TLC-ART101, equilibrium dialysis, 6-8 kDa cut-off membrane
[5] = format: in vivo, Macaca nemestrina
[6] = rat, in vivo; cited from earlier work
[7] = Free formulation, parameter value (%CV)
[8] = TLC-ART101, single SC dose, macaques, geometric mean (%CV), N=4
[9] = parameter value (%CV), listed as TLC-ART101 Ritonavir
[10] = TLC-ART101 model, free submodel, parameter value (%CV)
[11] = Free formulation, single SC dose, macaques, geometric mean (%CV), N=3
[12] = parameter value (%CV), listed as TLC-ART101 Tenofovir
[13] = TLC-ART101 model, free submodel

Kp (in vivo): 7.4 | CL/F ([1]; Free formulation, listed as Free Ritonavir): 3.90 L/[hr•kg] | CL/F ([1]; Free formulation, listed as RTV): ~4 L/[hr•kg] | k21, absorption rate constant [1, 7]: 0.6242 (29) 1/hr | Vd/F ([1]; plasma): 42.4 L/kg | half-life ([1]; plasma): 7.54 h | k el ([1]; plasma): 2.55e-05 s⁻¹ | k21, lymphatic entry rate constant, fast pathway [3]: 0.2361 (-) 1/hr | k31, lymphatic entry rate constant, intermediate pathway [3]: 0.1881 (-) 1/hr | k41, lymphatic entry rate constant, slow pathway [3]: 0.0198 (-) 1/hr | tlag2, lymphatic transit lag time, intermediate pathway ([3]; parameter value (%CV)): 38.83 (13) hr | tlag1, lymphatic transit lag time, fast pathway ([3]; parameter value (%CV), listed as RTV): ~2 h | V5_DcNP, apparent volume of distribution of DcNP-associated ARV [3, 9]: 10.09 (27) L/kg | k75, rate constant for release of free ARV from DcNPs in plasma [3, 9]: 0.4336 (5) 1/hr | tlag1, lymphatic transit lag time, fast pathway [3, 9]: 2.13 (51) hr | tlag3, lymphatic transit lag time, slow pathway [3, 9]: 181.87 (11) hr | V7_Free [3, 10]: 67.94 (3) L/kg | k07, clearance rate constant of free ARV from central compartment [3, 10]: 0.0962 (4) 1/hr | mean fraction of DcNP-associated drug [4]: 91.1% | CL/F, apparent total clearance [5, 11]: 4.23 (15) L/[hr•kg] | Terminal t1/2 ([5]; Free formulation, single SC dose, macaques, geometric mean (%CV), N=3, listed as Ritonavir (RTV)): 7.99 (38) hr | CL/F, apparent total clearance [5, 8]: 1.43 (56) L/[hr•kg] | AUC(0-t) ([5]; male, monkey, plasma, sc): 1370 ng·h/mL
SMILES: CC(C)c1nc(CN(C)C(=O)N[C@H](C(=O)N[C@@H](Cc2ccccc2)C[C@H](O)[C@H](Cc2ccccc2)NC(=O)OCc2cncs2)C(C)C)cs1 [Ritonavir]
AUC0-336h, area under the plasma drug concentration-time curve [2, 8]: 4.80 (57) hr•μg/mL | Terminal t1/2 [2, 8]: 44.06 (46) hr

SMILES: C[C@H](Cn1cnc2c(N)ncnc21)OCP(=O)(O)O [Tenofovir]
Kp (in vivo): 3.01 | k23, peripheral to central exchange rate constant ([1]; Free formulation, 2CM): 0.0738 (-) 1/hr | Vβ/F ([1]; Free formulation, 2CM, secondary parameter): 8.65 L/kg | k32, central to peripheral exchange rate constant ([1]; Free formulation, 2CM, parameter value (%CV)): 0.0298 (0) 1/hr | CL/F ([1]; Free formulation): 0.60 L/[hr•kg] | k21, absorption rate constant [1, 7]: 2.3423 (38) 1/hr | k el ([1]; in vivo): 0.000164 s⁻¹ | Vd/F ([1]; in vivo, 10.6 mg/kg): 1.44 L/kg | Terminal t1/2 [2, 8]: 65.33 (11) hr | AUC0-336h, area under the plasma drug concentration-time curve ([2]; in vivo, sc): 416.55 (15) hr•μg/mL | k21, lymphatic entry rate constant, fast pathway [3]: 0.1300 (-) 1/hr | k31, lymphatic entry rate constant, intermediate pathway [3]: 0.1588 (-) 1/hr | k41, lymphatic entry rate constant, slow pathway [3]: 0.1779 (-) 1/hr | V5_DcNP, apparent volume of distribution of DcNP-associated ARV ([3]; parameter value (%CV)): 0.17 (22) L/kg | tlag2, lymphatic transit lag time, intermediate pathway ([3]; parameter value (%CV)): 24.04 (19) hr | tlag1, lymphatic transit lag time, fast pathway ([3]; parameter value (%CV), listed as TFV): 0.1 h | k75, rate constant for release of free ARV from DcNPs in plasma [3, 12]: 0.0164 (15) 1/hr | tlag1, lymphatic transit lag time, fast pathway [3, 12]: 0.10 (-) hr | tlag3, lymphatic transit lag time, slow pathway [3, 12]: 122.06 (3) hr | k76, absorption rate constant of free ARV from SC site [3, 13]: 1.4201 (-) 1/hr | k87 [3, 13]: 0.0298 (-) 1/hr | V7_Free [3, 10]: 1.66 (18) L/kg | k07, clearance rate constant of free ARV from central compartment [3, 10]: 0.5824 (2) 1/hr | k78 [3, 10]: 0.0738 (0) 1/hr | mean fraction of DcNP-associated drug [4]: 11.2% | CL/F, apparent total clearance [5, 11]: 0.72 (4) L/[hr•kg] | MBRT0-24h, mean body residence time [5, 11]: 2.61 (12) hr | CL/F, apparent total clearance [5, 8]: 0.02 (15) L/[hr•kg] | MBRT0-336h, mean body residence time [5, 8]: 102.68 (7) hr | MBRT0-24h fold shorter than those of free LPV and RTV ([5]; free formulation): ~5 fold | plasma level as % of peak ([5]; free formulation, by 10 hr): ~1% | AUC(0-t) ([5]; male, monkey, plasma, sc): 14400 ng·h/mL | Tmax ([5]; male, monkey, plasma, sc): ~1 h | half-life ([5]; male, monkey, plasma, sc, Terminal t1/2, Free formulation, single SC dose, macaques, geometric mean (%CV), N=3): 8.01 h

SMILES: CN(Cc1cnc2nc(N)nc(N)c2n1)c1ccc(C(=O)N[C@@H](CCC(=O)O)C(=O)O)cc1 [methotrexate]
% of SC dose recovered in the blood [6]: 64-74% | % of SC dose recovered in the lymph [6]: 0.063-2%

CL/F ([1]; Free formulation, listed as Free Lopinavir): 4.24 L/[hr•kg] | CL/F ([1]; Free formulation, listed as LPV): ~4 L/[hr•kg] | k21, absorption rate constant [1, 7]: 0.7120 (20) 1/hr | half-life ([1]; plasma): 8.85 h | k el ([1]; plasma): 2.18e-05 s⁻¹ | mean fraction of DcNP-associated drug [4]: 92.2% | CL/F, apparent total clearance [5, 11]: 4.64 (14) L/[hr•kg] | Terminal t1/2 ([5]; Free formulation, single SC dose, macaques, geometric mean (%CV), N=3, listed as Lopinavir (LPV)): 8.65 (28) hr | CL/F, apparent total clearance [5, 8]: 0.85 (85) L/[hr•kg] | AUC(0-t) ([5]; male, monkey, plasma, sc): 4350 ng·h/mL
SMILES: Cc1cccc(C)c1OCC(=O)N[C@@H](Cc1ccccc1)[C@@H](O)C[C@H](Cc1ccccc1)NC(=O)[C@H](C(C)C)N1CCCNC1=O [Lopinavir]
Terminal t1/2 ([2]; monkey, in vivo, sc): 476.94 (173) hr

SMILES: COc1cccc2c1C(=O)c1c(O)c3c(c(O)c1C2=O)C[C@@](O)(C(=O)CO)C[C@@H]3O[C@H]1C[C@H](N)[C@H](O)[C@H](C)O1 [doxorubicin]
% of SC dose recovered in the blood [6]: 64-74% | % of SC dose recovered in the lymph [6]: 0.063-2%
